Values quoted from earlier work, collected in patent US7732404B2 (priority 1999, dated 2010).

Test system: mice
Settings: mouse, in vivo, po

In the case of CCOC(=O)C(C)O (stereo not shown) [Ethyl lactate, 2-hydroxypropanoic acid ethyl ester], the LD50 is listed as “higher than 5 g/kg”.
